Where two headings read alike, the source gives them in different places.
How the values were obtained:
SARS-Cov-2 3CLpro = SARS-Cov-2 3CLpro (Severe acute respiratory syndrome coronavirus 2, UniProt P0DTD1); assay: biochemical; conditions: Table A, class symbols, read-out: SARS-Cov-2 (IC50)
[1] = Cytotoxicity in HeLa cells without addition of OC43 virus (in parallel); conditions: human, HeLa cells, without OC43 virus
[2] = test system: SARS-CoV-2 B.1.1.7 lineage; assay: microbe, parasite or virus in culture; type: cell-based
in vitro = conditions: human
[3] = test system: human beta-coronavirus OC43; assay: OC43 Coronavirus Assay in HeLa cells (antiviral, cytopathic effect, cell-titer-glo); type: cell-based; conditions: Betacoronavirus 1, OC43, HeLa, Table B, OC43 coronavirus in HeLa cells, read-out: EC50
[4] = Severe acute respiratory syndrome coronavirus 2, Table C, SARS-CoV-2 B.1.1.7 in A549-dual_ACE2_TMPRSS2 cells, class symbols, read-out: A549-dual_ACE2_TMPRSS2 (EC50)

| SMILES | IC50 (SARS-Cov-2 3CLpro) [µM] | CC50 at 6 days [1] [µM] | EC50 ([2]; Severe acute respiratory syndrome coronavirus 2, read-out: A549-dual_ACE2_TMPRSS2 (EC50)) [µM] | CC50 (in vitro) [µM] | EC50 ([3]; class symbols) [µM] | EC50 [2, 4] [µM] | EC50 ([3]; cells given as a bound) [µM] |
| --- | --- | --- | --- | --- | --- | --- | --- |
| CC(C)C[C@@H](C(=O)N1C[C@@]2(C[C@H]1C#N)CC1(CC1)NC2=O)N(C)C(=O)[C@H](C)NC(=O)C(F)(F)F [Compound 13, (S)—N—((S)-1-((5R,8S)-8-cyano-10-oxo-7,11-diazadispiro[2.1.4^5.2^3]undecan-7-yl)-4-methyl-1-oxopentan-2-yl)-N-methyl-2-(2,2,2-trifluoroacetamido)propanamide] | < 0.02 | > 10 | 0.1 to 1 | > 1 | 0.1 to 1 |  |  |
| COC(=O)N[C@@H](CC1CC1)C(=O)N(C)[C@@H](CC1CC1)C(=O)N1C[C@@]2(C[C@H]1C#N)Oc1ncccc1NC2=O [Compound 214] | < 0.02 | > 10 |  | > 1 | < 0.1 | 0.1 to 1 |  |
| C[C@H](NC(=O)C(F)(F)F)C(=O)N(C)[C@@H](CC1CC1)C(=O)N1C[C@]2(C[C@H]1C#N)C(=O)NCC2Oc1ccccc1 (stereo partly drawn) [Compound 104] | 0.02 to 0.2 | > 10 |  | > 1 | < 0.1 | 0.1 to 1 |  |
| COc1ccc(C[C@@H](NC(=O)C(F)(F)F)C(=O)N(C)[C@@H](CC2CC2)C(=O)N2C[C@@]3(C[C@H]2C#N)Oc2cccnc2NC3=O)cc1 [Compound 149] | < 0.02 | > 10 |  | > 1 | < 0.1 | < 0.1 |  |
| COc1ccc(Cl)c2[nH]c(C(=O)N(C)[C@@H](CC3CC3)C(=O)N3C[C@@]4(C[C@H]3C#N)Oc3cc(F)cc(F)c3NC4=O)cc12 [Compound 135] | < 0.02 | > 10 |  | > 1 | < 0.1 | 0.1 to 1 |  |
| CN(C(=O)[C@H](CC1CC1)n1cc(-c2ccccc2)nn1)[C@@H](CC1CC1)C(=O)N1C[C@@]2(C[C@H]1C#N)Oc1cc(F)cc(F)c1NC2=O [Compound 114, (S)—N—((S)-1-((2R,5'S)-5′-cyano-5,7-difluoro-3-oxo-3,4-dihydrospiro[benzo[b][1,4]oxazine-2,3′-pyrrolidin]-1′-yl)-3-cyclopropyl-1-oxopropan-2-yl)-3-cyclopropyl-N-methyl-2-(4-phenyl-1H-1,2,3-triazol-1-yl)propenamide] | < 0.02 | > 10 |  | > 1 | 0.1 to 1 | 0.1 to 1 |  |
| CC(C)C[C@@H](C(=O)N1C[C@@]2(C[C@H]1C#N)Oc1cc(Cl)cc(F)c1NC2=O)N(C)C(=O)[C@H](C)NC(=O)C(F)(F)F [Compound 58] | < 0.02 | > 10 |  | > 1 | 0.1 to 1 | 0.1 to 1 |  |
| CN(C(=O)[C@@H](Cc1ccc(F)cc1)NC(=O)C(F)(F)F)[C@@H](CC1CC1)C(=O)N1C[C@@]2(C[C@H]1C#N)Oc1cc(F)cc(F)c1NC2=O [Compound 90] | < 0.02 | > 10 |  | > 1 | < 0.1 | < 0.1 |  |
| C[C@H](NC(=O)C1(F)CC1)C(=O)N(C)[C@@H](CC1CC1)C(=O)N1C[C@@]2(C[C@H]1C#N)Oc1cccnc1NC2=O [Compound 169] | < 0.02 | > 10 |  | > 1 | < 0.1 | 0.1 to 1 |  |
| CC(C)C[C@@H](C(=O)N1C[C@@]2(C[C@H]1C#N)OCc1ccccc1NC2=O)N(C)C(=O)c1cc2c(F)cc(F)cc2[nH]1 [Example 4, N—((S)-1-((3R,5'S)-5′-cyano-2-oxo-1,5-dihydro-2H-spiro[benzo[e][1,4]oxazepine-3,3′-pyrrolidin]-1′-yl)-4-methyl-1-oxopentan-2-yl)-4,6-difluoro-N-methyl-1H-indole-2-carboxamide] | 0.02 to 0.2 | > 10 |  | > 1 |  | 1 to 10 | > 1 |
| CN(C(=O)[C@H](CC1CC(F)(F)C1)NC(=O)C(F)(F)F)[C@@H](CC1CC1)C(=O)N1C[C@@]2(C[C@H]1C#N)Oc1cccnc1NC2=O [Compound 187] | < 0.02 | > 10 |  | > 1 | < 0.1 | 0.1 to 1 |  |
| CC(C)OC(=O)N[C@@H](C)C(=O)N(C)[C@@H](CC1CC1)C(=O)N1C[C@@]2(C[C@H]1C#N)Oc1cc(F)cc(F)c1NC2=O [Compound 120, isopropyl ((S)-1-(((S)-1-((2R,5'S)-5′-cyano-5,7-difluoro-3-oxo-3,4-dihydrospiro[benzo[b][1,4]oxazine-2,3′-pyrrolidin]-1′-yl)-3-cyclopropyl-1-oxopropan-2-yl)(methyl)amino)-1-oxopropan-2-yl)carbamate] | < 0.02 | > 10 |  | > 1 | 0.1 to 1 | 0.1 to 1 |  |

Reference: patent US20240199647A1, “ANTI-VIRAL COMPOUNDS” (Aligos Therapeutics, Inc., priority 2022, published 2024)
